{"source": "patent US12599141B2", "about": "“Rod-shaped plant viral nanoparticles or virus-like particles for agricultural applications” (priority 2016, dated 2026)", "key": {"[1]": {"assay": "CV release profile from CVTMGMV, dialysis-based assay", "type": "physicochemical", "settings": "10 mM KP buffer", "experimental": "The release of CV from TMGMV was evaluated using a dialysis-based assay.\nNext, we evaluated the release profile of CV from the TMGMV nanocarrier. […] We tested the release profile at room temperature and 4° C. to evaluate two extreme upper soil thermal conditions. Sodium acetate (pH 5.2) and PBS (pH 7.4) buffer solutions were chosen to mimic the acidic and neutral soil environments, respectively. Diffusion of CV from CVTMGMV was also evaluated in KP (pH 7.8) buffer, which was used during loading and storing conditions of the sample. Free CV, in a concentration matched to the concentration and number loaded into TMGMV, was also dialyzed in KP buffer (pH 7.8) at 4° C. as a positive control."}, "C. elegans": {"tested_on": "C. elegans", "assay": "C. elegans motility assay in liquid culture", "type": "in vivo, Caenorhabditis elegans", "description": "OP50-1 E. coli and C. elegans strain N2 were provided by the Caenorhabditis Genetics Center (CGC) from the University of Minnesota, which is funded by NIH office of Research Infrastructure Programs P40 OD010440. Nematodes were cultured using 100 mm×15 mm sterile polystyrene Petri dishes (FB0875712, Fisher). […] Nematodes were then cultured on the OP50-1 E. coli plates at 22° C. […] OP50-1 E. coli pellet stocks were resuspended in S basal and added to the liquid culture to provide a food source to the nematodes.\nBioavailability of CVTMGMV and free CV to C. elegans was investigated in liquid culture (see above). 50 Nematodes were added to each well of a 24-well culture plate to a final volume of 1 mL. […] The percent of affected nematodes (sum of the nematodes on scale (2) and (3)) as a function of time and the effective concentration (EC50) were determined comparing free CV, TMGMV, and CVTMGMV.\nBioavailability of CVTMGMV and free CV in Caenorhabditis elegans (C. elegans) was investigated in liquid culture. C. elegans nematode motility was classified as either (1) totally immobilized, (2) impaired motility, or (3) […] nematodes. To illustrate the data that were collected, a series of snap shots of C. elegans incubated with no treatment, 10 μM of CV, and 10 μM of CVTMGMV were taken every second for 60 s. […] Five nematodes were selected in each treatment regime and pseudocolored to illustrate their motility.\nAt specific time points, nematodes were observed under a white light microscope, and the percent of affected nematodes (sum of the nematodes on scale (2) and (3)) was quantified as a function of time. The effective concentration (EC50), defined as the concentration of CV at which half of the maximum immobilization of C. elegans was reached, was determined for free CV and CVTMGMV (FIGS. 5D-G)."}, "[2]": {"settings": "ref: PubChem CID 11057; cited from earlier work"}, "[3]": {"assay": "Soil mobility (leaching through 4 cm top soil column)", "type": "physicochemical", "experimental": "The following soil mobility test was designed to establish the leaching of CVTMGMV and free CV in a soil column. […] One mL aliquots of CVTMGMV or free CV (the concentration was 100 mM normalized to the drug concentration) were applied atop of the soil columns, followed by 50 elution fractions of 300 μL DI water. Each collected elution fraction was centrifuged for 10 min at 12,000 rpm to precipitate remaining soil particles. The supernatant was subsequently analyzed by UV-vis spectroscopy (see above).\nA soil mobility test was designed to establish the leaching of CVTMGMV and free CV in soil. Briefly, top soil was packed in a plastic column up to a height of 4 cm and saturated with deionized (DI) water. CVTMGMV or free CV was applied atop the soil columns, followed by DI water. Fractions were collected from the soil column, purified, and analyzed by UV-vis spectroscopy for the presence of TMGMV and CV. The λ260 (RNA) and λ280 (CP) wavelengths were monitored to quantify the amount of TMGMV that leached through the soil."}}, "data": [{"smiles": "CN(C)c1ccc(C(=C2C=CC(=[N+](C)C)C=C2)c2ccc(N(C)C)cc2)cc1", "note": "[CV, hexamethyl parparosaniline chloride]", "values": [{"measurement": "time to 50% of CV released/dialyzed", "setting": "[1]; pH 7.8, 4° C. (storing conditions)", "value": "≤ 1.6", "unit": "h"}, {"measurement": "time to complete release of CV", "setting": "[1]; pH 7.8, 4° C., dialysis over 72 h", "value": "< 18", "unit": "h"}, {"measurement": "incubation time to maximum efficacy", "setting": "C. elegans; 1 μM", "value": 6, "unit": "h"}, {"measurement": "nematodes paralyzed/dead", "setting": "C. elegans; 1 μM, within the first hour", "value": "about 15%"}, {"measurement": "incubation time to maximum efficacy", "setting": "C. elegans; 10 μM", "value": 6, "unit": "h"}, {"measurement": "motility by time lapse imaging", "setting": "C. elegans; 10 μM, after 3 h of incubation", "value": "severe motility impairment"}, {"measurement": "nematodes paralyzed/dead", "setting": "C. elegans; 10 μM, within the first hour", "value": "about 30%"}, {"measurement": "nematodes paralyzed/dead", "setting": "C. elegans; 100 μM, within 1 h, 22° C.", "value": "Sixty"}, {"measurement": "Emax at 1 µM", "setting": "C. elegans; Caenorhabditis elegans, 6 h, read-out: maximum efficacy (nematodes affected)", "value": "~25", "unit": "%"}, {"measurement": "EC50", "setting": "C. elegans; Caenorhabditis elegans, 24 h, read-out: EC50 (concentration of CV at half of maximum immobilization of C. elegans)", "value": 3.7, "unit": "µM"}, {"measurement": "Emax at 10 µM", "setting": "C. elegans; Caenorhabditis elegans, read-out: maximum efficacy (nematodes affected)", "value": "~50", "unit": "%"}, {"measurement": "effect on nematode motility vs untreated population", "setting": "C. elegans; doses lower than 1 μM", "value": "no significant effect on nematode motility"}, {"measurement": "Koc", "setting": "[2]", "value": "6.1×10^5"}, {"measurement": "eluted concentration of CV, times lower than CVTMGMV", "setting": "[3]", "value": 3.6, "unit": "times"}]}]}
